Laboratory results from patent US4892871A, “Azido-substituted octopamine agonists and the use thereof to control invertebrate pests” (The General Hospital Corporation, priority 1988, dated 1990).
Read-outs that look alike come from different tables or passages of the source. Blank lines part the entries; values can stand above or below the compound they belong to.

What was measured:
[1] = system: octopamine receptors; assay: Irreversible (UV) binding of compound VIII to firefly light organ membranes and displacement; details: for displacement of irreversible VIII binding (in words): other experiments, nonoctopaminergic compounds
Procedure: In these experiments, membranes were preincubated with the probe for under various conditions and then the mixture was photolyzed in quartz microcuvettes using a UV-C germicidal lamp. […] To determine whether the binding was specific, various displacing agents were added during the preincubation with tritiated IV (VIII), and the mixture then photolyzed.

[2] = system: octopamine receptor protein(s); assay: SDS-polyacrylamide gel autoradiogram of light organ membrane proteins photolabeled with VIII; format: binding, firefly
[3] = system: Light Organ Adenylate Cyclase; assay: Antagonist inhibition of agonist-stimulated light organ adenylate cyclase; format: biochemical, firefly; details: for inhibition of compound IV stimulation of adenylate cyclase (in words): stimulation by compound IV; for Ki: read-out: Calculated Ki
[4] = system: octopamine receptors; assay: Autoradiography of intact isolated firefly light organs labeled with VIII
Procedure: Because compound VIII binds irreversibly, it should have potential as an anatomic probe to […] localize octopamine receptors at the light microscopic level. To determine if this is feasible, some preliminary studies were conducted using intact isolated firefly light organs. The lanterns were first preincubated with VIII in dim light and then exposed either to no light or to intense UV. Following this step, the lanterns were extensively washed, then slide mounted, dehydrated, and exposed to tritium-sensitive X-ray film. […] In the absence of UV light, there was no labeling. Localization of octopamine receptors, particularly in the nervous system, should aid in an understanding of how octopamine exerts its behavioral effects in insects.

[5] = system: octopamine-sensitive adenylate cyclase; assay: Activation of adenylate cyclase in firefly light organ membrane (broken cell) preparations; format: biochemical, Photinus pyralis; details: for Ka (concentration necessary for half-maximal activation of cyclase activity): firefly light organ membranes, reversible conditions
Procedure: The question of whether a given azido-substituted compound within the scope of the invention is an octopamine agonist can be readily answered by measuring adenylate cyclase activity of the octopamine-sensitive adenylate cyclase present in broken cell preparations of the firefly light organ. […] Specimens of Photinus pyralis are prepared by opening their tail sections, cleaning them, removing the light organs, and homogenizing the cyclase-containing fraction. Adenylate cyclase activity is measured in appropriate buffer-containing ATP, cofactors, and the compound to be tested. Normally, the solution mixture contains a phosphodiesterase inhibitor such as theophylline, and the assay is designed to provide linear measurements with respect to time and enzyme concentration. If necessary, the compounds to be tested are initially solubilized and appropriate solvent controls are run in parallel. The enzyme reaction is initiated by addition of ATP, stopped by heating, and centrifuged. Cyclic AMP can be measured by any test which indicates the presence thereof, preferably by the protein binding assay of Brown et al. (Advances in Cyclic Nucleotide Research 2:25-40 (1972)). The determination of the constant Ka, which is the concentration of the azido-substituted agonist necessary for half-maximal activation of cyclase activity, is carried out by measuring cyclase activity in the preparation, and plotting the activity (above control activity) versus the semilogarithm of the particular agonist concentration. This is done for a series of increasing concentrations until maximal activity (Vmax) is reached. Ka^(Azido) is then calculated from the graph as the agonist concentration required for one-half of Vmax. Ka^(Azido) is compared with the constant (Ka^oct) determined in an analogous way using ±p-octopamine as the agonist. The ratio Ka^oct /ka^(Azido) is then an indication of whether a particular azido-substituted agonist (Azido) is more (ratio greater than 1) or less (ratio smaller than 1) active than (±)-p-octopamine (oct). […]

[6] = system: intact firefly light organ; assay: Light emission after injection into isolated firefly tails; format: in vivo
Procedure: In the second verification procedure, a bioassay was conducted which measured the effect of tritiated VIII on eliciting light emission when injected into isolated firefly tails.

[7] = system: octopamine receptor; assay: Reversible binding of compound VIII to light organ membranes (filtration); parameters: species or system firefly
From the text: The low affinity of octopamine for its receptor (Ka =30 micromolar) results in a half-time of dissociation of considerably less than 0.1 second. This precludes the use of labeled octopamine as a receptor ligand since the time required for the separation of free from bound ligand during a filtration assay is several seconds. […] In other words, following washing, enough ligand will still be on the receptor to allow estimation of the receptor's binding constant for compound IV. (Because there will still be significant loss of label during filtration, one cannot use this type of assay to estimate total receptor number).

[8] = system: octopamine receptors; assay: Irreversible activation of adenylate cyclase after photolysis of firefly light organ membranes; format: biochemical; details: photolyzed, washed
From the text: When exposed to ultraviolet light in these wavelengths, the N3 azido group on the para-position is photolyzed to yield free N2 and a […] covalently with a number of protein sites, including areas with double bonds, amino groups and carboxylic acids. If compound IV is occupying an octopamine receptor at the time of photolysis, then the ligand will bind to a site on or near the receptor protein. […] To determine this, a series of photolysis experiments were performed in which firefly light organ membranes were preincubated with or without compound IV and then photolyzed. Next, the membranes were extensively washed to remove all free ligand and any ligand that was not covalently bound. Following this, adenylate cyclase activity was assayed. […] Presumably, the excess octopamine displaced compound IV so that, when the membranes were later photolyzed, octopamine (and not compound IV) was occupying the receptor. Subsequently, during washing, the octopamine was removed so that the receptor returned to its unstimulated state.

[9] = system: Manduca larvae; assay: Antifeeding activity, Manduca larvae on sprayed tomato leaves; format: in vivo; details: percentage of leaf area remaining after 72 hours, dim light
[10] = system: adenylate cyclase; details: cited from earlier work
[11] = system: octopamine receptor; assay: In vitro octopamine agonist activity in the cockroach; format: biochemical
From the text: (§1) However, use of formamidines as pest controlling agents gives rise to certain problems, including the fact that the aniline breakdown products are carcinogenic. Moreover, a further problem is that the range of activity of these compounds is limited to a relatively few insect species. Matsumura, F., et al.. Environ. Health Perspect. 14: 71-82 (1976). […] Consistent with this in vitro activity, the formamidines are toxic in Manduca but not in the cockroach.

[12] = system: octopamine receptor; assay: In vitro octopamine agonist activity in Manduca; format: biochemical
From the text: as §1

Structure (SMILES): CN1CCN2c3ccccc3Cc3ccccc3C2C1 (centres unmarked) [Mianserin, mianserin]
effect on VIII labeling of the protein peak at MW 74,000 ([2]; excess antagonist present during photolysis): completely blocked
inhibition of compound IV stimulation of adenylate cyclase (in words) [3]: inhibited

Structure (SMILES): [3H]c1c(CC)c(N=C2NCCN2)c(CC)c([3H])c1N=[N+]=[N-] [compound VIII, 2-(4-azido-2,6-diethyl-3,5-ditritiophenyl)imino-2-imidazoline]
proteins labeled on gel ([2]; absence of UV radiation (lane C)): no proteins were labeled
proteins labeled on gel ([2]; photolyzed with UV (lane A)): Four major labeled peaks
labeling of the lantern ([4]; absence of UV light): no labeling
labeling of the lantern ([4]; exposed to intense UV): marked labeling
increase in amount of label permanently bound on exposure to UV light ([1]; photolyzed vs no UV): 14 fold
Ka (concentration necessary for half-maximal activation of cyclase activity) [5]: about 0.5 micromolar
adenylate cyclase activity profile compared with unlabeled IV ([5]; light organ membranes): virtually identical
light response compared with genuine unlabeled compound ([6]; injection of 0.5 nmoles into isolated firefly tails): identical
concentration at which specific binding saturates ([7]; specific binding = absence minus presence of 1000-fold excess mianserin): about 2 micromolar
Kd ([7]; specific binding, light organ membranes, read-out: concentration at which 50% binding occurs): ~0.8 µM

Structure (SMILES): NCCc1c[nH]c2ccc(O)cc12 [serotonin]
displacement of irreversible VIII binding (in words) [1]: not displaced

Structure (SMILES): Cc1ccc(N(CC2=NCCN2)c2cccc(O)c2)cc1 [Phentolamine, phentolamine]
Ki ([3]; inhibiting stimulation by DCDM (a formamidine)): 18 µM
Ki ([3]; inhibiting stimulation by compound IV): 20 µM
Ki ([3]; inhibiting stimulation by octopamine (OCT)): 46 µM
inhibition of compound IV stimulation of adenylate cyclase (in words) [3]: inhibited

Structure (SMILES): CC(C)NCC(O)COc1cccc2ccccc12 (centres unmarked) [Propranolol, propranolol]
inhibition of compound IV stimulation of adenylate cyclase (in words) [3]: less potent

Structure (SMILES): CNC=Nc1ccc(Cl)cc1C [DCDM, N-demethylchlordimeform]
agonist character in adenylate cyclase stimulation [10]: partial agonist
potency relative to octopamine in adenylate cyclase stimulation [10]: about six

Structure (SMILES): NCC(O)c1ccc(O)cc1 (centres unmarked) [octopamine]
Ka (concentration necessary for half-maximal activation of cyclase activity) [5]: 30 µM
irreversible activation after preincubation with compound alone [8]: failed to cause any irreversible activation

Now from value to compound, other results behind:

displacement of irreversible VIII binding (in words) [1]: not displaced
Structure (SMILES): NCCc1c[nH]cn1 [histamine]

increase in adenylate cyclase activity after prior photolysis and washing ([8]; membranes preincubated with compound): 3 fold
Structure (SMILES): CCc1cc(N=[N+]=[N-])cc(CC)c1N=C1NCCN1 [compound IV, (4-azido-2,6-diethylphenyl)imino-2-imidazoline]
potency relative to octopamine in stimulating light emission ([6]; injected into isolated firefly tails): about 15 fold
potency relative to octopamine in inhibiting feeding [9]: about 10 fold

inhibition of compound IV stimulation of adenylate cyclase (in words) [3]: inhibited
Structure (SMILES): CN1CCC(=C2c3ccccc3C=Cc3ccccc32)CC1 [Cyproheptadine, cyproheptadine]

displacement of irreversible VIII binding (in words) [1]: not displaced
Structure (SMILES): NCCc1ccc(O)c(O)c1 [dopamine]

displacement of irreversible VIII binding (in words) [1]: not displaced
Structure (SMILES): NC[C@H](O)c1ccc(O)c(O)c1 [norepinephrine]

agonist character [11]: very weak and partial agonist
agonist character [12]: full agonist
potency relative to octopamine [12]: 20 fold
Structure (SMILES): Cc1cc(Cl)ccc1N=CN [DDCDM, didemethylchlordimeform]
